Measurements reported in patent US9918470B2, “Pesticidal mixtures” (Syngenta Participations AG, priority 2011, dated 2018).

Key:
[1] = system: Heliothis virescens (Tobacco Budworm); experiment: Heliothis virescens (Tobacco Budworm): eggs on artificial diet in 24-well plate, larval mortality after 4 days; format: in vivo
Procedure: Heliothis virescens (Tobacco Budworm)
Eggs (0-24 h old) are placed in 24-well microtiter plate on artificial diet and treated with test solutions (DMSO) by pipetting. After an incubation period of 4 days, samples are checked for larval mortality.
(§1) Columns 4 and 5 show the control observed from the compounds alone. […] When a compound applied alone gave no control at a particular rate, it is assumed that lower rates of that compound alone also give no control. DMET=deltamethrin, SPAT=spirotetramat, IMID=imidacloprid, B15=compound 15 in Table B.

[2] = system: Tetranychus urticae (Two-Spotted Spider Mite); experiment: Tetranychus urticae (Two-Spotted Spider Mite): sprayed bean leaf discs, mobile stages mortality after 8 days; format: in vivo
Excerpt: Tetranychus urticae (Two-Spotted Spider Mite)
Bean leaf discs on agar in 24-well microtiter plates are sprayed with test solutions (DMSO). After drying, the leaf discs are infested with mite populations of mixed ages. 8 days later, discs are checked for mobile stages (I removed “mixed population”) mortality.
as §1

In the case of CC1(C)[C@H](C(=O)O[C@H](C#N)c2cccc(Oc3ccccc3)c2)[C@@H]1C=C(Br)Br [DMET, deltamethrin], the “DMET observed control %” value ([1]; DMET alone 0.0062 ppm) is reported as 0%, the “DMET observed control %” value ([1]; DMET alone 0.0125 ppm) is reported as 0% and the “DMET observed control %” value ([1]; DMET alone 0.025 ppm) is reported as 0%. For the same compound, the “DMET observed control %” value ([1]; DMET alone 0.05 ppm) was 0%, the “DMET observed control %” value ([1]; DMET alone 0.1 ppm) was 0% and the “DMET observed control %” value ([1]; DMET alone 0.2 ppm) was 0%. For the same compound, the “DMET observed control %” value ([1]; DMET alone 0.4 ppm) was 0% and the “DMET observed control %” value ([1]; DMET alone 0.8 ppm) was 0%.

For CCOC(=O)OC1=C(c2cc(C)ccc2C)C(=O)N[C@]12CC[C@@H](OC)CC2 [SPAT, spirotetramat], the “SPAT observed control %” value ([1]; SPAT alone 6.25 ppm) was 0%, the “SPAT observed control %” value ([1]; SPAT alone 12.5 ppm) was 0% and the “SPAT observed control %” value ([1]; SPAT alone 25 ppm) was 0%. For the same compound, the “SPAT observed control %” value ([1]; SPAT alone 50 ppm) was 0%, the “SPAT observed control %” value ([1]; SPAT alone 100 ppm) was 0% and the “SPAT observed control %” value ([1]; SPAT alone 200 ppm) was 55%.

CC(NC(=O)C1CC1)c1ccc(N2CCC(c3cc(C(F)(F)F)cc(C(F)(F)F)c3)(C(F)(F)F)C2)cc1 (mixture of isomers) [Compound B15] was tested, and the “B15 observed control %” value ([1]; B15 alone 0.05 ppm (Table 2)) was 0%, the “B15 observed control %” value ([1]; B15 alone 0.1 ppm (Table 1)) was 55% and the “B15 observed control %” value ([1]; B15 alone 0.1 ppm (Table 2)) was 0%. For the same compound, the “B15 observed control %” value ([1]; B15 alone 0.2 ppm (Table 1)) was 75%, the “B15 observed control %” value ([1]; B15 alone 0.2 ppm (Table 2)) was 85% and the “B15 observed control %” value ([1]; B15 alone 0.4 ppm (Table 1)) was 75%. For the same compound, the “B15 observed control %” value ([1]; B15 alone 0.4 ppm (Table 2)) was 90%, the “B15 observed control %” value ([1]; B15 alone 0.8 ppm (Table 1)) was 85% and the “B15 observed control %” value ([1]; B15 alone 0.8 ppm (Table 2)) was 90%. For the same compound, the “B15 observed control %” value ([1]; B15 alone 1.6 ppm (Table 1)) was 95%, the “B15 observed control %” value ([2]; B15 alone 0.187 ppm) was 0% and the “B15 observed control %” value ([2]; B15 alone 0.375 ppm) was 0%. For the same compound, the “B15 observed control %” value ([2]; B15 alone 0.75 ppm) was 0% and the “B15 observed control %” value ([2]; B15 alone 1.5 ppm) was 30%.

For O=[N+]([O-])NC1=NCCN1Cc1ccc(Cl)nc1 [IMID, imidacloprid], the “IMID observed control %” value ([2]; IMID alone 12.5 ppm) was 0%, the “IMID observed control %” value ([2]; IMID alone 25 ppm) was 0% and the “IMID observed control %” value ([2]; IMID alone 50 ppm) was 0%. For the same compound, the “IMID observed control %” value ([2]; IMID alone 100 ppm) was 0%, the “IMID observed control %” value ([2]; IMID alone 200 ppm) was 0% and the “IMID observed control %” value ([2]; IMID alone 400 ppm) was 0%.
